# According to US7183415B2, “Quinoline compound” (Takeda Pharmaceutical Company Limited, priority 2001, dated 2007):
row,melting point,Compound
1,150 to 154 °C,"CCN(CC)C(=O)CCC1CCN(Cc2cnc3cc(NC(=O)c4ccc(-c5ccc(F)cc5)cc4)c(C)cc3c2)CC1 [Example 257, N-[3-({4-[3-(diethylamino)-3-oxopropyl]-1-piperidinyl}methyl)-6-methyl-7-quinolinyl]-4′-fluoro[1,1′-biphenyl]-4-carboxamide]"
2,158 to 160 °C,"Cc1cc2cc(CN3CCCC3)cnc2cc1NC(=O)c1ccc(-c2ccc(F)cc2F)cc1 [Example 214, 2′,4′-difluoro-N-[6-methyl-3-(1-pyrrolidinylmethyl)-7-quinolinyl][1,1′-biphenyl]-4-carboxamide]"
3,176 to 177 °C,"Cc1c(NC(=O)c2ccc(-c3ccc4c(c3)CCO4)cc2)ccc2cc(CN3CCCC3)cnc12 [Example 113, 4-(2,3-dihydro-1-benzofuran-5-yl)-N-[8-methyl-3-(1-pyrrolidinylmethyl)-7-quinolinyl]benzamide]"
4,243 °C,"CNC(=O)CC1CCN(Cc2cnc3cc(NC(=O)c4ccc(-c5ccc(F)cc5)cc4)c(C)cc3c2)CC1 [Example 269, 4′-fluoro-N-[6-methyl-3-({4-[2-(methylamino)-2-oxoethyl]-1-piperidinyl}methyl)-7-quinolinyl][1,1′-biphenyl]-4-carboxamide]"
5,195 to 197 °C,"Cc1c(NC(=O)c2ccc(-c3ccc4c(c3)CCCO4)cc2)ccc2cc(CN3CCCC3)cnc12 [Example 114, 4-(3,4-dihydro-2H-chromen-6-yl)-N-[8-methyl-3-(1-pyrrolidinylmethyl)-7-quinolinyl]benzamide]"
6,220 to 222 °C,"Cc1c(NC(=O)c2ccc(-c3ccc(C(F)(F)F)cc3)cc2)ccc2cc(CN3CCCC3)cnc12 [Example 101, N-[8-methyl-3-(1-pyrrolidinylmethyl)-7-quinolinyl]-4′-(trifluoromethyl)[1,1′-biphenyl]-4-carboxamide]"
7,205 to 206 °C,"Cc1c(NC(=O)c2ccc(-c3ccc(Cl)s3)cc2F)ccc2cc(CN3CCCCC3)cnc12 (hydrate or solvate) [Example 172, 4-(5-chloro-2-thienyl)-2-fluoro-N-[8-methyl-3-(1-piperidinylmethyl)-7-quinolinyl]benzamide]"
8,217 to 220 °C,"CCNC(=O)CCCC1CCN(Cc2cnc3c(C)c(NC(=O)c4ccc(-c5ccc(F)cc5)cc4)ccc3c2)CC1 [Example 209, N-[3-({4-[4-(ethylamino)-4-oxobutyl]-1-piperidinyl}methyl)-8-methyl-7-quinolinyl]-4′-fluoro[1,1′-biphenyl]-4-carboxamide]"
9,180 to 182 °C,"COc1ccc(-c2ccc(C(=O)Nc3ccc4cc(CN5CCCC5)cnc4c3C)cn2)cc1 [Example 96, 6-(4-methoxyphenyl)-N-[8-methyl-3-(1-pyrrolidinylmethyl)-7-quinolinyl]nicotinamide]"
10,271 °C (dec.),"COc1cc2cc(CN3CCCC3)cnc2cc1NC(=O)c1ccc(-c2ccc(Cl)cc2)cc1 [Example 23, 4′-chloro-N-[6-methoxy-3-(1-pyrrolidinylmethyl)-7-quinolinyl][1,1′-biphenyl]-4-carboxamide]"
11,> 220 °C (dec.),"CN1CCc2nc3cc(NC(=O)c4ccc(-c5ccc(Cl)cc5)cc4F)ccc3cc2C1 [Example 328, 4′-chloro-3-fluoro-N-(2-methyl-1,2,3,4-tetrahydrobenzo[b][1,6]naphthyridin-7-yl)[1,1′-biphenyl]-4-carboxamide]"
12,260 °C,"NC(=O)C1CCN(Cc2cnc3cc(NC(=O)c4ccc(-c5ccc(Cl)cc5)cc4)ccc3c2)CC1 [Example 90, 1-[(7-{[(4′-chloro-1,1′-biphenyl-4-yl)carbonyl]amino}-3-quinolinyl)methyl]piperidine-4-carboxamide]"
13,145 to 146 °C,"CCN(CC)C(=O)CCCC1CCN(Cc2cnc3c(C)c(NC(=O)c4ccc(-c5ccc(F)cc5)cc4)ccc3c2)CC1 [Example 210, N-[3-({4-[4-(diethylamino)-4-oxobutyl]-1-piperidinyl}methyl)-8-methyl-7-quinolinyl]-4′-fluoro[1,1′-biphenyl]-4-carboxamide]"
14,163 to 164 °C,"O=C(Nc1cc2ncc(CN3CCCC3)cc2cc1F)c1ccc(-c2ccccc2)cc1F [Example 58, 3-fluoro-N-[6-fluoro-3-(1-pyrrolidinylmethyl)-7-quinolinyl][1,1′-biphenyl]-4-carboxamide]"
15,175 to 178 °C,"Cc1ccc(-c2ccc(C(=O)Nc3cc4ncc(CN5CCCC5)cc4cc3C)cc2F)cc1 [Example 234, 2-fluoro-4′-methyl-N-[6-methyl-3-(1-pyrrolidinylmethyl)-7-quinolinyl][1,1′-biphenyl]-4-carboxamide]"
16,177 to 178 °C,"Cc1c(NC(=O)c2ccc(OCc3ccc(F)cc3)cc2)ccc2cc(CN3CCCC3)cnc12 (hydrate or solvate) [Example 123, 4-[(4-fluorobenzyl)oxy]-N-[8-methyl-3-(1-pyrrolidinylmethyl)-7-quinolinyl]benzamide]"
17,232 to 234 °C,"Cc1c(NC(=O)c2ccc(-c3ccc(F)cc3)cc2)ccc2cc(CN3CCC(CCCC(N)=O)CC3)cnc12 [Example 206, N-(3-{[4-(4-amino-4-oxobutyl)-1-piperidinyl]methyl}-8-methyl-7-quinolinyl)-4′-fluoro[1,1′-biphenyl]-4-carboxamide]"

row,melting point,Compound
1,214 to 217 °C,"Cc1cc2cc(CN3CCCC3)cnc2cc1NC(=O)c1ccc(-c2ccc(Cl)cc2)cc1 [Example 39, 4′-chloro-N-[6-methyl-3-(1-pyrrolidinylmethyl)-7-quinolinyl][1,1′-biphenyl]-4-carboxamide]"
2,236 to 238 °C,"CN(C)Cc1cnc2cc(NC(=O)c3ccc(-c4ccc(Cl)cc4)cc3)ccc2c1 [Example 1, 4′-chloro-N-[3-[(dimethylamino)methyl]-7-quinolinyl][1,1′-biphenyl]-4-carboxamide]"
3,181 °C,"CCN(CC)C(=O)CCCC1CCN(Cc2cnc3cc(NC(=O)c4ccc(-c5ccc(F)cc5)cc4)c(C)cc3c2)CC1 [Example 260, N-[3-({4-[4-(diethylamino)-4-oxobutyl]-1-piperidinyl}methyl)-6-methyl-7-quinolinyl]-4′-fluoro[1,1′-biphenyl]-4-carboxamide]"
4,216 to 219 °C,"Cc1cc2cc(CN3CCCC3)cnc2cc1NC(=O)c1ccc(-c2ccc(C(F)(F)F)cc2)cc1 [Example 215, N-[6-methyl-3-(1-pyrrolidinylmethyl)-7-quinolinyl]-4′-(trifluoromethyl)[1,1′-biphenyl]-4-carboxamide]"
5,212 to 213 °C,"Cc1c(NC(=O)c2ccc(-c3ccc(Cl)s3)cc2)ccc2cc(CN3CCCCC3)cnc12 [Example 167, 4-(5-chloro-2-thienyl)-N-[8-methyl-3-(1-piperidinylmethyl)-7-quinolinyl]benzamide]"
6,217 to 218 °C,"Cc1c(NC(=O)c2ccc(-c3cc4ccccc4o3)cc2)ccc2cc(CN3CCCC3)cnc12 (hydrate or solvate) [Example 106, 4-(1-benzofuran-2-yl)-N-[8-methyl-3-(1-pyrrolidinylmethyl)-7-quinolinyl]benzamide]"
7,247 °C (dec.),"O=C(Nc1ccc2cc(CN3CCCCCC3)cnc2c1)N1CCC(c2ccc(Cl)cc2)CC1 [Example 34, N-[3-(1-azepanylmethyl)-7-quinolinyl]-4-(4-chlorophenyl)-1-piperidine carboxamide]"
8,174 °C,"COc1ccc(-c2ccc(C(=O)Nc3ccc4cc(CN5CCCC5)cnc4c3)c(F)c2)cc1 [Example 87, 3-fluoro-4′-methoxy-N-[3-(1-pyrrolidinylmethyl)-7-quinolinyl][1,1′-biphenyl]-4-carboxamide]"
9,166 to 168 °C,"Cc1c(NC(=O)c2ccc(-c3ccc(F)cc3)cc2)ccc2cc(CN3CCCCCC3)cnc12 [Example 180, N-[3-(1-azepanylmethyl)-8-methyl-7-quinolinyl]-4′-fluoro[1,1′-biphenyl]-4-carboxamide]"
10,166 °C,"O=C(Nc1ccc2cc(CN3CCCC3)cnc2c1)c1ccc(-c2ccccc2)cc1F [Example 88, 3-fluoro-N-[3-(1-pyrrolidinylmethyl)-7-quinolinyl][1,1′-biphenyl]-4-carboxamide]"
11,167 to 168 °C,"Cc1c(NC(=O)c2ccc(-c3ccc(F)cc3)cc2)ccc2cc(CN3[C@H](C)CCC[C@@H]3C)cnc12 [Example 193, N-(3-{[(2R,6S)-2,6-dimethylpiperidinyl]methyl}-8-methyl-7-quinolinyl)-4′-fluoro[1,1′-biphenyl]-4-carboxamide]"
12,182 to 184 °C,"O=C(Nc1cc2ncc(CN3CCCC3)cc2cc1N1CCCC1)c1ccc(-c2ccc(F)cc2)cc1 [Example 64, 4′-fluoro-N-[6-(1-pyrrolidinyl)-3-(1-pyrrolidinylmethyl)-7-quinolinyl][1,1′-biphenyl]-4-carboxamide]"
13,159 to 160 °C,"Cc1c(NC(=O)c2ccc(OCc3ccc(F)cc3)cc2)ccc2cc(CN3CCCCC3)cnc12 [Example 162, 4-[(4-fluorobenzyl)oxy]-N-[8-methyl-3-(1-piperidinylmethyl)-7-quinolinyl]benzamide]"
14,205 °C (dec.),"O=C(Nc1ccc2cc(CN3CCCCCC3)cnc2c1)c1ccc(-c2ccccc2)cc1 [Example 31, N-[3-(1-azepanylmethyl)-7-quinolinyl][1,1′-biphenyl]-4-carboxamide]"
15,160 to 162 °C,"Cc1c(NC(=O)c2ccc(-c3ccc(Cl)s3)cc2F)ccc2cc(CN3CCCC3)cnc12 (hydrate or solvate) [Example 143, 4-(5-chloro-2-thienyl)-2-fluoro-N-[8-methyl-3-(1-pyrrolidinylmethyl)-7-quinolinyl]benzamide]"
16,232 °C,"O=C(Nc1ccc2cc(CN3CCCC3)cnc2c1)c1ccc(-c2ccc(Cl)cc2)cc1F [Example 85, 4′-chloro-3-fluoro-N-[3-(1-pyrrolidinylmethyl)-7-quinolinyl][1,1′-biphenyl]-4-carboxamide]"
17,204 °C,"Cc1cc2cc(CN3CCCCCC3)cnc2cc1NC(=O)c1ccc(-c2ccc(Cl)cc2)cc1 [Example 238, N-[3-(1-azepanylmethyl)-6-methyl-7-quinolinyl]-4′-chloro[1,1′-biphenyl]-4-carboxamide]"
